Measured values as given in PubChem BioAssay AID2060903 (Molecular Pharmacology Branch, DTP, NCI, 2025).
Values belong to the compound of their own block, whether it stands above or below them.

Test system: 377384-186-R-J1-PDC complex spheroid viability
Test: Anticancer human tumor 377384-186-R-J1-PDC patient-derived pancreatic carcinoma cell line growth inhibition [RAS]
Settings: for viability, T/C: stronger effect = lower value
From the text: RAS pathway inhibitors in Combinations in Complex Spheroids
A high-throughput screen of multi-cell type tumor spheroids was designed to identify active combinations of RAS pathway inhibitors and targeted small molecules. Complex spheroids include a stromal component modeled by human endothelial cells (HUVEC) and fibroblasts modeled by human mesenchymal stem cells (MSCs). The concentration ranges selected for each drug and investigational agent were based upon clinically achievable concentrations if the clinical Cmax of the agent was known.
Compounds. The drugs and investigational agents: abemaciclib (NSC768073), cobimetinib (NSC768068), divarasib (GDC6063, NSC841802), docetaxel (NSC628503), GDC-1971 (RLY-1971, NSC841576), gemcitabine (NSC613327), inavolisib (NSC800729), ipatasertib (NSC767898), KB-0742 (NSC834161), MRTX-1133 (NSC836407), osimertinib (NSC779217), RMC-4630 (NSC839698), RMC-6236 (NSC851965), RMC-6291 (NSC852671), Ro-3306 (NSC812927), sapanisertib (NSC764658), SN-38 (NSC673596), staurosporine (NSC755774), SY5609 (NSC837396), and tovorafenib (DAY101, NSC766906), were obtained from the National Cancer Institute (NCI) Developmental Therapeutics Program Chemical Repository. The FDA-approved anticancer drug set is available from the NCI Developmental Therapeutics Program. […] The stock solutions were prepared in dimethyl sulfoxide (DMSO, Sigma-Aldrich, St. Louis, MO, cat. D2650) at 800-fold the tested concentration and stored at -70 degrees C prior to their use. All drugs and investigational agents were tested over a range starting from a high concentration at or near the clinical Cmax and decreasing in half-log increments. If the clinical Cmax for an agent had not been determined, the highest concentration tested was 10 microM.
Cell Culture. All cells were maintained in an incubator at 37 degrees C and 5% CO2 with 95% humidity. The PDC lines were cultured according to standard operating procedures established by the NCI PDMR. All PDCs were thawed and cultured in Matrigel-coated flasks prepared with a working solution of 1X Ham's F-12 nutrient mix, without supplementation (Invitrogen, Waltham, MA, cat. 11765054), 100 U/mL penicillin-streptomycin (Invitrogen, cat. 15140122), and 2.5% Matrigel (Corning Inc., Corning, NY, cat. 354248) for the first three passages. The 362531-283-R-J2-PDC and 782815-120-R-J1-PDC lines were cultured in 6C/Colon 1B media, which includes advanced DMEM/F-12 (Thermo Fisher Scientific, cat. 12634028), 10 mM HEPES (Thermo Fisher Scientific, cat. 15630080), 1X GlutaMAX supplement (Thermo Fisher Scientific, cat. 35050061), 0.1 mg/mL primocin (InvivoGen, San Diego, CA, cat. ant-pm-2), 10% defined fetal bovine serum, heat inactivated (HyClone Laboratories Inc., Logan, UT, cat. SH30070.03HI), 50% L-WRN conditioned media (ATCC, cat. CRL-3276), 1.25 mM N-Acetyl-L-cysteine (Sigma-Aldrich, cat. A9165), 10 mM nicotinamide (Sigma-Aldrich, cat. N0636), 1X B-27 supplement (Thermo Fisher Scientific, cat. 17504044), 1X N-2 supplement (Thermo Fisher Scientific, cat. 17502048), 50 ng/mL human EGF (Thermo Fisher Scientific, cat. PHG0311), and 10 microM Y-27632 dihydrochloride (Tocris Bioscience, cat. 1254). The K12877-001-R-J1-PDC line was cultured in 6I media, which includes all 6C/Colon 1B media plus 10 ng/mL human FGF-10 (PeproTech, cat. 100-26), 1 ng/mL human FGF-2 (PeproTech, cat. 100-18B), 1 µM prostaglandin E2 (Tocris Bioscience, cat. 2296), […] hydrocortisone (Sigma-Aldrich, cat. H4001), and […] bovine insulin (Sigma-Aldrich, cat. I6634). The K86415-001-R-J1-PDC line was cultured in 6D media, which includes all 6C/Colon 1B media components minus the L-WRN conditioned media. The 485176-168-R4-J1-PDC was cultured in PANC media, which includes all 6C/Colon 1B media plus 100 ng/mL human FGF-10 (PeproTech, cat. 100-26), 500 nM SB-431542 (Selleckchem, cat. S1067), and 10 nM gastrin (Tocris Bioscience, cat. 3006). […]

[1] = curve of first compound, second compound 0.00316 µM
[2] = curve of first compound, second compound 0.01 µM
[3] = curve of first compound, second compound 0.0316 µM
[4] = curve of first compound, second compound 0.1 µM
[5] = curve of first compound, second compound 0.316 µM
[6] = curve of first compound, second compound 1 µM
[7] = second compound 0.00316 µM, first compound 0.0316 µM
[8] = second compound 0.00316 µM, first compound 0.1 µM
[9] = second compound 0.00316 µM, first compound 0.316 µM
[10] = second compound 0.00316 µM, first compound 1 µM
[11] = second compound 0.00316 µM, first compound 3.16 µM
[12] = second compound 0.00316 µM, first compound 10 µM
[13] = second compound 0.01 µM, first compound 0.0316 µM
[14] = second compound 0.01 µM, first compound 0.1 µM
[15] = second compound 0.01 µM, first compound 0.316 µM
[16] = second compound 0.01 µM, first compound 1 µM
[17] = second compound 0.01 µM, first compound 3.16 µM
[18] = second compound 0.01 µM, first compound 10 µM
[19] = second compound 0.0316 µM, first compound 0.0316 µM
[20] = second compound 0.0316 µM, first compound 0.1 µM
[21] = second compound 0.0316 µM, first compound 0.316 µM
[22] = second compound 0.0316 µM, first compound 1 µM
[23] = second compound 0.0316 µM, first compound 3.16 µM
[24] = second compound 0.0316 µM, first compound 10 µM
[25] = second compound 0.1 µM, first compound 0.0316 µM
[26] = second compound 0.1 µM, first compound 0.1 µM
[27] = second compound 0.1 µM, first compound 0.316 µM
[28] = second compound 0.1 µM, first compound 1 µM
[29] = second compound 0.1 µM, first compound 3.16 µM
[30] = second compound 0.1 µM, first compound 10 µM
[31] = second compound 0.316 µM, first compound 0.0316 µM
[32] = second compound 0.316 µM, first compound 0.1 µM
[33] = second compound 0.316 µM, first compound 0.316 µM
[34] = second compound 0.316 µM, first compound 1 µM
[35] = second compound 0.316 µM, first compound 3.16 µM
[36] = second compound 0.316 µM, first compound 10 µM
[37] = second compound 1 µM, first compound 0.0316 µM
[38] = second compound 1 µM, first compound 0.1 µM
[39] = second compound 1 µM, first compound 0.316 µM
[40] = second compound 1 µM, first compound 1 µM
[41] = second compound 1 µM, first compound 3.16 µM
[42] = second compound 1 µM, first compound 10 µM
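Note: spheroids exposed to compounds for seven days before readout.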

- IC50 [1]: 1580 nM
- IC50 [2]: 1650 nM
- IC50 [3]: 1700 nM
- IC50 [4]: 1720 nM
- IC50 [5]: 1720 nM
- IC50 [6]: 1770 nM
SMILES: CCC(CC)c1cc(NC2CCC(N)C2)n2nccc2n1 (stereo not given) + C=CC(=O)N1CCN(c2nc(OCC3CCCN3C)nc3c(F)c(-c4nc(N)cc(C)c4C(F)(F)F)c(Cl)cc23)C(C)C1
- viability, T/C [7]: 98%
- viability, T/C [8]: 100%
- viability, T/C [9]: 109%
- viability, T/C [10]: 80.4%
- viability, T/C [11]: 2.73%
- viability, T/C [12]: 4.78%
- viability, T/C [13]: 106%
- viability, T/C [14]: 100%
- viability, T/C [15]: 110%
- viability, T/C [16]: 86.5%
- viability, T/C [17]: 2.18%
- viability, T/C [18]: 3.83%
- viability, T/C [19]: 107%
- viability, T/C [20]: 88.6%
- viability, T/C [21]: 124%
- viability, T/C [22]: 89.4%
- viability, T/C [23]: 2.68%
- viability, T/C [24]: 4.52%
- viability, T/C [25]: 101%
- viability, T/C [26]: 97.9%
- viability, T/C [27]: 112%
- viability, T/C [28]: 91.3%
- viability, T/C [29]: 2.71%
- viability, T/C [30]: 5.16%
- viability, T/C [31]: 101%
- viability, T/C [32]: 102%
- viability, T/C [33]: 101%
- viability, T/C [34]: 90.3%
- viability, T/C [35]: 3.2%
- viability, T/C [36]: 6.46%
- viability, T/C [37]: 94.4%
- viability, T/C [38]: 95.8%
- viability, T/C [39]: 96.8%
- viability, T/C [40]: 94.6%
- viability, T/C [41]: 3.19%
- viability, T/C [42]: 6.78%

- IC50 [1]: < 31.6 nM
- IC50 [2]: < 31.6 nM
- IC50 [3]: < 31.6 nM
- IC50 [4]: < 31.6 nM
- IC50 [5]: < 31.6 nM
- IC50 [6]: < 31.6 nM
SMILES: CC(=O)OC12COC1CC(O)C1(C)C(=O)C(O)C3=C(C)C(OC(=O)C(O)C(NC(=O)OC(C)(C)C)c4ccccc4)CC(O)(C(OC(=O)c4ccccc4)C21)C3(C)C (stereo not given) + C=CC(=O)N1CCN(c2nc(OCC3CCCN3C)nc3c(F)c(-c4nc(N)cc(C)c4C(F)(F)F)c(Cl)cc23)C(C)C1
- viability, T/C [7]: 9.92%
- viability, T/C [8]: 11.3%
- viability, T/C [9]: 8.82%
- viability, T/C [10]: 12.3%
- viability, T/C [11]: 11.7%
- viability, T/C [12]: 14.2%
- viability, T/C [13]: 8.32%
- viability, T/C [14]: 8.59%
- viability, T/C [15]: 9.28%
- viability, T/C [16]: 10.8%
- viability, T/C [17]: 14.4%
- viability, T/C [18]: 11.4%
- viability, T/C [19]: 8.72%
- viability, T/C [20]: 8.61%
- viability, T/C [21]: 9.75%
- viability, T/C [22]: 12.3%
- viability, T/C [23]: 13.2%
- viability, T/C [24]: 14%
- viability, T/C [25]: 9.31%
- viability, T/C [26]: 9.36%
- viability, T/C [27]: 9.95%
- viability, T/C [28]: 12.9%
- viability, T/C [29]: 12.4%
- viability, T/C [30]: 9.63%
- viability, T/C [31]: 9.62%
- viability, T/C [32]: 7.81%
- viability, T/C [33]: 8.61%
- viability, T/C [34]: 10.3%
- viability, T/C [35]: 13.6%
- viability, T/C [36]: 14.5%
- viability, T/C [37]: 9.06%
- viability, T/C [38]: 11.8%
- viability, T/C [39]: 13.3%
- viability, T/C [40]: 12.9%
- viability, T/C [41]: 12.3%
- viability, T/C [42]: 14.5%

- IC50 (curve of compound): 1.68 µM [middle of 4 runs]
SMILES: CCC(CC)c1cc(NC2CCC(N)C2)n2nccc2n1 (stereo not given)
- viability, T/C (compound 0.0316 µM): 100% [middle of 4 runs]
- viability, T/C (compound 0.1 µM): 105% [middle of 4 runs]
- viability, T/C (compound 0.316 µM): 105% [middle of 4 runs]
- viability, T/C (compound 3.16 µM): 3.17% [middle of 4 runs]
- viability, T/C (compound 10 µM): 4.82% [middle of 4 runs]
